In patent US20040142979A1, “Heteroarylsulfonylmethyl hydroxamic acids and amides and their use as protease inhibitors” (priority 2002, published 2004):

Key:
Assay type in all cases: biochemical
[1] = molecular target: T1, Human recombinant MMP-1 (Homo sapiens, UniProt P03956); assay: In vitro MMP inhibition analysis (fluorogenic peptide substrate), MMP-1; details: human recombinant enzyme; 4 μM substrate (A); apparent Ki without substrate correction
T1 construct: made in house; host or cells: MMP-1-transfected HT-1080 cells (spent media)
T1 sequence (P03956 100-469): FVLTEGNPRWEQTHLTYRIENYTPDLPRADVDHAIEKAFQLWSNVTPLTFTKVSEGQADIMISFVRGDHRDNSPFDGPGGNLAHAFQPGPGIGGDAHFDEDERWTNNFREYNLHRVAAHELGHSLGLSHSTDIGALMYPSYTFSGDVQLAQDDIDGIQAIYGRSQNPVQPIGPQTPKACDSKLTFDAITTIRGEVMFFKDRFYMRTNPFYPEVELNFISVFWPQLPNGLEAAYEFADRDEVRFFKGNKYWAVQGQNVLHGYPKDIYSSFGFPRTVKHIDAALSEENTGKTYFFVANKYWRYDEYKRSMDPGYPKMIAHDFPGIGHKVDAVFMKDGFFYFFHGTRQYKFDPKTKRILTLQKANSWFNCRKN
Procedure: (§1) Several compounds and salts were analyzed in an in vitro assay to determine their ability to inhibit the MMP cleavage of peptide substrates. Inhibition constant (Ki) were calculated from the assayed compound-MMP interactions.
(§2) Human recombinant MMP-1, MMP-2, MMP-9, MMP-13, and MMP-14 were used in this assay. All enzymes were prepared in Assignee's laboratories following usual laboratory procedures. Protocols for the preparation and use of these enzymes are available in the scientific literature. See, e.g., Enzyme Nomenclature (Academic Press, San Diego, Calif., 1992) (and the citations therein). See also, Freije et al., J. Biol. Chem., 269(24), 16766-16773 (1994).
The MMP-1 proenzyme was purified from the spent media of MMP-1-transfected HT-1080 cells provided by Dr. Harold Welgus of Washington University (St. Louis, Mo.). The protein was purified on a zinc chelating column.
(§3) All MMPs were activated using 4-aminophenylmercuric acetate (“APMA”, Sigma Chemical, St. Louis, Mo.) or trypsin. MMP-9 also was activated using human recombinant MMP-3 (purified in Assignee's laboratory following standard cloning and purification techniques).
(§4) The following fluorogenic, methoxycoumarin-containing polypeptide substrate (A) was used in the MMP inhibition assays:
(§5) MCA-ArgProLeuGlyLeuDpaAlaArgGluArgNH2 (A)
(§6) “MCA” is 7-methoxycoumarin-4-yl acetyl. Substrate (A) was prepared Assignee's laboratory. In the absence of MMP inhibitory activity, the substrate is cleaved at the Gly-Leu peptide bond. This cleavage separates the highly fluorogenic peptide from the 2,4-dinitrophenyl quencher, thus resulting in increase of fluorescent intensity.
(§7) The stock solutions of the assayed compounds and salts were prepared in 1% dimethyl sulfoxide (DMSO). These stock solutions were diluted in Buffer A (100 mM Tris-HCl, 100 mM NaCl, 10 mM CaCl2, 0.05% polyoxyethylene 23 lauryl ether, pH 7.5) to obtain solutions with different compound concentrations, i.e., assay solutions with different concentrations of the assayed MMP inhibitory compound. The experiment controls contained the same amount of Buffer A/DMSO as the assayed sample, but contained none of the tested compound or salt.
(§8) The assays from which the Ki determinations were made were performed as follows. The assayed compound samples were incubated in separate wells of untreated white polystyrene plates (Nunc Nalgene International, Rochester, N.Y.), and analyzed on a Tecan SpectraFlour Plus plate reader. The excitation wavelength was 330 nm, and the emission wavelength -420 nm. All samples (assayed compounds and controls) were incubated in separate plate wells at room temperature for 1 hr in the presence of 4 μM of MMP substrate (A). In the absence of MMP inhibitory activity, substrate (A) was cleaved at the Gly-Leu bond resulting in an increase of relative fluorescence. Inhibition was observed as a reduced rate of this increase in relative fluorescence. […] This protocol is a modification of method by Knight et al., FEBS Lett., 296(3), 263-266 (1992). Apparent inhibitory constants were determined by non-linear regression of reaction velocity as a function of inhibitor and enzyme concentration using Morrison's equation, as described by Kuzmic, P., et al., Anal. Biochem., 286(1):45-50 (2000). Modifications were made in the non-linear regression method to allow a common control reaction rate and effective enzyme concentration to be shared between all dose-response relationships on a given assay plate. Since the substrate concentration was chosen to be at or below the Km, the apparent Ki's from this analysis were reported as Ki's without correction for the influence of substrate.
(§9) The above protocols were used to determine MMP inhibition Ki constants for the compounds in Examples 1, 2, and 4-42 above. All Ki values in Table 3 are given in nM units.

[2] = molecular target: T2, Human recombinant MMP-2 (Homo sapiens, UniProt P08253); assay: In vitro MMP inhibition analysis (fluorogenic peptide substrate), MMP-2; details: human recombinant enzyme; 4 μM substrate (A); apparent Ki without substrate correction
T2 construct: made in house; host or cells: MMP-2-transfected p2AHT2 cells
T2 sequence (P08253 110-660): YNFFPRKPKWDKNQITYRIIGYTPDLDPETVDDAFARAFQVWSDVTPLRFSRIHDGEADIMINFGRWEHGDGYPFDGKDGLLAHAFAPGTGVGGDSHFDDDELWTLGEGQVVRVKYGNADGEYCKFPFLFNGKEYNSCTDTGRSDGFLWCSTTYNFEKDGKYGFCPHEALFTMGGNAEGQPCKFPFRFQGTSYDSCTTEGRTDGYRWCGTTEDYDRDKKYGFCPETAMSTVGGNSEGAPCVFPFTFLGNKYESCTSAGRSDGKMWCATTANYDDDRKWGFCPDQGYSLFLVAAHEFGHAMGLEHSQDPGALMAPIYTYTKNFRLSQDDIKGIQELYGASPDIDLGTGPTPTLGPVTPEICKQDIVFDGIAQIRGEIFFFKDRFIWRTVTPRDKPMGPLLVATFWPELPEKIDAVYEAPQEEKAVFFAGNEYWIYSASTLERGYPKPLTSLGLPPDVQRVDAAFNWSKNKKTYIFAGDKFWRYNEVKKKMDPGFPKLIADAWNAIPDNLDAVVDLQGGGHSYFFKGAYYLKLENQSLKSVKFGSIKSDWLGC
Procedure: as §1, §2
The MMP-2 proenzyme was purified by gelatin Sepharose chromatography from MMP-2- transfected p2AHT2 cells provided by Dr. Gregory Goldberg of Washington University (St. Louis, Mo.).
as §3, §4, §5, §6, §7, §8, §9

[3] = molecular target: T3, Human recombinant MMP-14 (Homo sapiens, UniProt P50281); assay: In vitro MMP inhibition analysis (fluorogenic peptide substrate), MMP-14; details: human recombinant catalytic domain; 4 μM substrate (A); apparent Ki without substrate correction
T3 construct: The catalytic domain enzyme was expressed in E. Coli inclusion bodies; made in house
Procedure: as §1, §2
The MMP-14 full length cDNA was provided by Dr. Gregory Goldberg of Washington University (St. Louis, Mo.). The catalytic domain enzyme was expressed in E. Coli inclusion bodies, solubilized in urea, purified on a preparative […] reverse phase HPLC column, and then refolded in the presence of zinc acetate and purified for use.
as §3, §4, §5, §6, §7, §8, §9

Ki [1]	Ki [2]	Ki [3]	Compound
> 1250 nM	0.483 nM	466 nM	CCCCOc1ccc(-c2ccc(S(=O)(=O)C3(C(=O)NO)CCOCC3)s2)cc1 [Example 43]
1120 nM	0.173 nM	429 nM	O=C(NO)C1(S(=O)(=O)c2ccc(-c3ccc(OC(F)(F)C(F)F)cc3)s2)CCOCC1 [Example 44]
> 10000 nM	2.08 nM	3490 nM	CCCCCc1ccc(-c2ccc(S(=O)(=O)C3(C(=O)NO)CCOCC3)cn2)cc1 [Example 45]
4340 nM	0.367 nM	852 nM	O=C(NO)C1(S(=O)(=O)c2ccc(-c3ccc(OCC(F)(F)F)cc3)nc2)CCOCC1 [Example 46]
1490 nM	0.274 nM	2130 nM	O=C(NO)C1(S(=O)(=O)c2ccc(-c3ccc(OC(F)(F)C(F)F)cc3)nc2)CCOCC1 [Example 47]
1240 nM	0.222 nM	1850 nM	O=C(NO)C1(S(=O)(=O)c2ccc(-c3ccc(OC(F)(F)C(F)F)cc3)nc2)CCOCC1 [Example 48]
> 10000 nM	3.14 nM	9250 nM	O=C(NO)C1(S(=O)(=O)c2ccc(-c3ccc(CCC(F)(F)C(F)(F)F)cn3)s2)CCOCC1 [Example 49]
> 10000 nM	29.4 nM	2820 nM	O=C(NO)C1(S(=O)(=O)c2ccc(-c3ccc(C(F)(F)F)cn3)s2)CCOCC1 [Example 50]
6530 nM	2.07 nM	3330 nM	O=C(NO)C1(S(=O)(=O)c2ccc3nc(-c4ccc(OC(F)(F)F)cc4)sc3c2)CCOCC1 [Example 51]
> 10000 nM	76.3 nM	> 10000 nM	CCCCc1ccc(C(=O)C2CCN(c3nc4ccc(S(=O)(=O)C5(C(=O)NO)CCOCC5)cc4s3)CC2)s1 [Example 52]
> 10000 nM	3.52 nM	> 10000 nM	CCCc1ccc(-c2nc3ccc(S(=O)(=O)C4(C(=O)NO)CCOCC4)cc3s2)cc1 [Example 53]
> 10000 nM	35.4 nM	> 10000 nM	CC(C)Cc1ncc(-c2nc3ccc(S(=O)(=O)C4(C(=O)NO)CCOCC4)cc3s2)s1 [Example 54]
> 10000 nM	621 nM	> 10000 nM	O=C(NO)C1(S(=O)(=O)c2ccc3nc(-c4cccc(C(F)(F)F)c4)sc3c2)CCOCC1 [Example 55]
> 10000 nM	40.3 nM	798 nM	O=C(NO)C1(S(=O)(=O)c2ccc3nc(N4CCC(Oc5ccc(OC(F)(F)F)cc5)CC4)sc3c2)CCOCC1 [Example 56]
> 10000 nM	1.86 nM	2160 nM	O=C(NO)C1(S(=O)(=O)c2ccc3nc(-c4ccc(C(F)(F)F)cc4)sc3c2)CCOCC1 [Example 57]
> 10000 nM	1.51 nM	2500 nM	CCc1ccc(-c2nc3ccc(S(=O)(=O)C4(C(=O)NO)CCOCC4)cc3s2)cc1 [Example 58]

Ki [1]	Ki [2]	Ki [3]	Compound
> 1250 nM	2.01 nM	927 nM	O=C(NO)C1(S(=O)(=O)c2ccc3nc(-c4ccc(Cl)s4)sc3c2)CCOCC1 [Example 59]
2840 nM	10.3 nM	707 nM	O=C(NO)C1(S(=O)(=O)c2ccc3nc(-c4ccc(F)c(F)c4)sc3c2)CCOCC1 [Example 60]
> 10000 nM	14.8 nM	> 10000 nM	O=C(NO)C1(S(=O)(=O)c2ccc3nc(-c4ccc(F)cc4F)sc3c2)CCOCC1 [Example 61]
2020 nM	4.83 nM	355 nM	O=C(NO)C1(S(=O)(=O)c2ccc3nc(-c4ccsc4)sc3c2)CCOCC1 [Example 62]
9160 nM	2.25 nM	4230 nM	COCCN1CCC(C(=O)NO)(S(=O)(=O)c2ccc3nc(-c4ccc(OC(F)(F)F)cc4)sc3c2)CC1 [Example 63]
> 10000 nM	151 nM	3830 nM	O=C(NO)C1(S(=O)(=O)c2ccc3nc(-n4cnc(-c5ccccc5)c4)sc3c2)CCOCC1 [Example 64]
> 1250 nM	4.43 nM	686 nM	O=C(NO)C1(S(=O)(=O)c2ccc3nc(-c4ccc5c(c4)OCO5)sc3c2)CCOCC1 [Example 65]
> 312 nM	2.21 nM	> 312 nM	CCOc1ccc(-c2nc3ccc(S(=O)(=O)C4(C(=O)NO)CCOCC4)cc3s2)cc1 [Example 66]
> 10000 nM	2.76 nM	3600 nM	O=C(NO)C1(S(=O)(=O)c2ccc3nc(-c4ccc(SC(F)(F)F)cc4)sc3c2)CCOCC1 [Example 67]
> 10000 nM	0.665 nM	2450 nM	O=C(NO)C1(S(=O)(=O)c2ccc(-c3ccc(CCC(F)(F)F)cc3)nc2)CCOCC1 [Example 68]
> 10000 nM	0.766 nM	5070 nM	O=C(NO)C1(S(=O)(=O)c2ccc(-c3ccc(CCC(F)(F)C(F)(F)F)cc3)nc2)CCOCC1 [Example 69]
> 10000 nM	1840 nM	> 10000 nM	CCCCc1ccc(C(=O)C2CCN(c3ccc(S(=O)(=O)C4(C(=O)NO)CCOCC4)cn3)CC2)s1 [Example 70]
> 10000 nM	553 nM	> 10000 nM	CC(C)CN(C)C(=O)Cc1ccc(-c2ccc(S(=O)(=O)C3(C(=O)NO)CCOCC3)cn2)cc1 [Example 71]
> 10000 nM	305 nM	> 10000 nM	O=C(Cc1ccc(-c2ccc(S(=O)(=O)C3(C(=O)NO)CCOCC3)cn2)cc1)N1CCCCC1 [Example 72]
> 10000 nM	91.8 nM	> 10000 nM	CCCCNC(=O)Cc1ccc(-c2ccc(S(=O)(=O)C3(C(=O)NO)CCOCC3)cn2)cc1 [Example 73]
